Assay results published in US20230416239A1, “COMPOUNDS AND METHODS FOR TREATING A CYTOKINE-MEDIATED DISEASE” (CONSERVATOIRE NATIONAL DES ARTS ET MÉTIERS, priority 2020, published 2023).

Key:
[1] = molecular target: T1, IL-4 (Homo sapiens, UniProt P05112); experiment: Immunoassay binding test, IL-4; conditions: for IC50: IL-4 400 ng/ml, receptor 100 ng/ml, read-out: BINDING IL4 IC50
T1 sequence (P05112 25-153): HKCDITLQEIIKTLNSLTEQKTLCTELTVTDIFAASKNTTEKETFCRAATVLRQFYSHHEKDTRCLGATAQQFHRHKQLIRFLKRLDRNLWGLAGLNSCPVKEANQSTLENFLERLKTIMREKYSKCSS
Procedure, shortened: (§1)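 Detection used OD at 450 nm after biotinylated anti-cytokine antibody and avidin-HRP were applied to receptor-coated wells. Those wells had received, overnight at 4 °C, cytokine preincubated 2 h at 37 °C with compound at final 100 to 0.78 μM. IL-6 mixtures further contained IL-6Ra at 200 ng/ml final.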

[2] = molecular target: IL-6 (Homo sapiens, UniProt P05231); experiment: Immunoassay binding test, IL-6 (gp130 receptor, IL-6Ra present); conditions: IL-6Ra 200 ng/ml
Chain of IL-6 (P05231 30-212, species assumed): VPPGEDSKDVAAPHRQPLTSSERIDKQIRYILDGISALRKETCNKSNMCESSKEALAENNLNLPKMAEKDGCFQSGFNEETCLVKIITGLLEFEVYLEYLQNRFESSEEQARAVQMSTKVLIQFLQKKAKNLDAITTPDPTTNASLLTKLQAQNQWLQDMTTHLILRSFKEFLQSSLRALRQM
Procedure, shortened: as §1

[3] = system: hepatic shock induced by LPS/D-Galactosamine; experiment: LPS/D-Galactosamine induced lethal shock; assay type: in vivo, Balb/C mice; conditions: 5 mg force-fed in DMSO eight hours before LPS/D-Galactosamine i.p.; 48 hours
Experimental: 7 week-old Balb/C mice (n=10 per group) were force-fed with 100 μl of a solution of DMSO containing 5 mg of compounds 33, 65 or 71 eight hours before receiving an intraperitoneal injection of 200 μl of PBS containing 0.2 μg of LPS and 20 mg of D-Galactosamine. A negative control group (vehicle) was force-fed with 100 μl of a solution of DMSO alone eight hours before to be injected with 200 μl of LPS/D-Galactosamine solution. Mice survival was monitored for 48 hours after the injection of LPS/D-Galactosamine.

[4] = molecular target: TNFa/TNFRI interaction (Homo sapiens, UniProt P01375); experiment: TNFa/TNFRI interaction displacement test; assay type: binding; conditions: for Displacement EC50 TNFa in presence of compound: Difference: Compound EC50 minus SPD304 EC50; for Displacement (%): compounds at 50 μM, human TNFRI 100 ng/ml;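 as to Displacement EC50 TNFa in presence of compound: Difference: SPD304 reference at 20 µM final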
Chain of TNFa/TNFRI interaction (P01375 77-233 limits assumed): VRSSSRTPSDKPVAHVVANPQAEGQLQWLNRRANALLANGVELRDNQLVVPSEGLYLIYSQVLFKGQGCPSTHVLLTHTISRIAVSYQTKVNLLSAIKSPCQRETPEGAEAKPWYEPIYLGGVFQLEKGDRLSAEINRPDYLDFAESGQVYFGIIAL
Procedure, shortened: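 Plates coated overnight at 4° C with human TNFRI (100 ng/ml) and blocked with 2% BSA, then test mixtures were incubated overnight at 4° C. Bound cytokine detected with biotinylated anti-cytokine antibody (2 h, 37° C) and avidin-HRP, read as OD at 450 nm.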

[5] = molecular target: TNFα (Homo sapiens, UniProt P01375); experiment: Immunoassay binding test, TNFa; conditions: compounds 100 to 0.78 μM; TNFα 10 ng/ml, receptor 100 ng/ml; read-out: BINDING TNF IC50
Chain of TNFα (P01375 77-233 limits assumed, species assumed): as the sequence (P01375 77-233 limits assumed) above
Procedure, shortened: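 ELISA-type binding test: receptor-coated plates blocked with 2% BSA, then cytokine (six-point dilution series) preincubated 2 h at 37 °C and bound overnight at 4 °C. Detection used biotinylated anti-cytokine antibody and avidin-HRP, read as OD at 450 nm. For IL-6, IL-6Ra was present at 200 ng/ml final.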

[6] = molecular target: IL-13 (Homo sapiens, UniProt P35225); experiment: Immunoassay binding test, IL-13; conditions: for IC50: IL-13 400 ng/ml, receptor 100 ng/ml, read-out: BINDING IL13 IC50
Chain of IL-13 (P35225 25-146, species assumed): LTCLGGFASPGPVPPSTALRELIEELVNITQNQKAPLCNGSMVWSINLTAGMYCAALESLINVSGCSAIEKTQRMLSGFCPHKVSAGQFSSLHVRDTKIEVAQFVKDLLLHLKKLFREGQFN
Procedure, shortened: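 Receptor-coated plates; compounds (100 to 0.78 μM final) preincubated 2 h at 37° C with fixed cytokine, then bound to receptor overnight at 4° C. Bound cytokine detected with biotinylated anti-cytokine antibody and avidin-HRP, OD 450 nm.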

Row | SMILES | BINDING IL4 % Neutra at 100 μM [1] | IC50 [1] | BINDING IL6 % Neutra at 100 μM [2] | Displacement (%) [4] | IC50 [5] | BINDING IL13 % Neutra at 100 μM [6] | IC50 [6] | survival [3] | Displacement EC50 TNFa in presence of compound: Difference [4]
1 | O=S(=O)(c1ccccc1)n1cc(CN(CCCCCNC2CCCCC2)Cc2ccncc2)c2ccccc21 [Compound 33] | 96% | 4.1 µM | −11.8% | 273% | 4.6 µM | 95.4% | 10.5 µM | 100% | 11.6 ng/mL
2 | O=S(=O)(c1ccccc1)n1cc(CN(CCCCNC2CCCC2)Cc2cccnc2F)c2ccccc21 [Compound 71, N′-cyclopentyl-N^4-((2-fluoropyridin-3-yl)methyl)-N^4-((1-(phenylsulfonyl)-1H-indol-3-yl)methyl)butane-1,4-diamine] | 92.4% | 6 µM | 2% | 199% | 9.8 µM | 89.7% | > 50 µM | 60% | –
3 | CN(CCOCCN(Cc1cccnc1F)Cc1cn(S(=O)(=O)c2ccccc2)c2ccccc12)C1CCCCC1 [Compound 65, N-(2-(2-(((2-fluoropyridin-3-yl)methyl)((1-(phenylsulfonyl)-1H-indol-3-yl)methyl)amino)ethoxy)ethyl)-N-methylcyclohexanamine] | 86.5% | 5.5 µM | 0% | 224% | 5.9 µM | 79.3% | > 50 µM | 60% | –
4 | CCCN(CCOCCN(Cc1cccnc1F)Cc1cn(S(=O)(=O)c2ccccc2)c2ccccc12)C1CCCC1 [Compound 106] | 84.1% | 14.6 µM | 0% | 132% | 11.5 µM | 32.1% | > 50 µM | – | –
5 | O=S(=O)(c1ccccc1)n1cc(CN(CCNC2CCCCC2)Cc2ccncc2)c2ccccc21 [Compound 26] | 95.5% | 8.4 µM | −17.2% | 107% | 14.1 µM | 66% | > 50 µM | – | –
6 | CCCN(CCOCCN(Cc1cccnc1F)Cc1cn(S(=O)(=O)c2ccccc2)c2ccccc12)C1CCCCC1 [Compound 101] | 81.9% | 7.9 µM | 0% | 152% | 17.4 µM | 56.3% | 35.5 µM | – | –
7 | CN(CCCCN(Cc1cccnc1F)Cc1cn(S(=O)(=O)c2ccccc2)c2ccccc12)C1CCCC1 [Compound 72, N′-cyclopentyl-N^4-((2-fluoropyridin-3-yl)methyl)-N′-methyl-N^4-((1-(phenylsulfonyl)-1H-indol-3-yl)methyl)butane-1,4-diamine] | 89.8% | 8.1 µM | 3% | 208% | 9.7 µM | 92.1% | > 50 µM | – | –

Continued, in another order:

Row | BINDING IL4 % Neutra at 100 μM [1] | IC50 [1] | BINDING IL6 % Neutra at 100 μM [2] | Displacement (%) [4] | IC50 [5] | BINDING IL13 % Neutra at 100 μM [6] | IC50 [6] | SMILES | survival [3] | Displacement EC50 TNFa in presence of compound: Difference [4]
8 | 98.4% | 5.3 µM | 2.8% | 149% | 11.8 µM | 91.2% | > 50 µM | CN(CCCN(Cc1ccncc1)Cc1cn(-c2cccc(C(F)(F)F)c2)c2ccccc12)C1CCCCC1 [Compound 14] | – | –
9 | 91.2% | 7 µM | 1% | 91% | 13.7 µM | 89.9% | 17.8 µM | O=S(=O)(c1ccccc1)n1cc(CN(CCCCCNC2CCCCC2)Cc2cccc(F)n2)c2ccccc21 [Compound 48, N1-cyclohexyl-N5-((6-fluoropyridin-2-yl)methyl)-N5-((1-(phenylsulfonyl)-1H-indol-3-yl)methyl)pentane-1,5-diamine] | – | –
10 | 94.6% | 7.8 µM | −15.3% | 99% | 22.6 µM | 61.2% | > 50 µM | O=S(=O)(c1ccccc1)n1cc(CN(CCNC2CCCCC2)Cc2cccnc2)c2ccccc21 [Compound 25] | – | –
11 | 95.4% | 5.9 µM | −4.8% | 256% | 7.2 µM | 97.9% | > 50 µM | O=S(=O)(c1ccccc1)n1cc(CN(CCCCCNC2CCCCC2)Cc2cccnc2)c2ccccc21 [Compound 34] | – | 9.9 ng/mL
